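Cultured in 96-well plates, cells were exposed to test compound for 48 hours across five concentrations. At the GI50, growth is halved.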 Active and inactive are the calls of the source. Rule as the data show it: active = GI50 up to about 1.1 µM and inactive = higher.
Tests used:
Assay in all cases: NCI-60 cell line screen, 48 h
[1] = system: HL-60
[2] = system: SN12C
[3] = system: U-251
[4] = system: MDA-N
[5] = system: MDA-MB-435
[6] = system: HOP-92
[7] = system: NCI-H460
[8] = system: KM12
[9] = system: RXF 393
[10] = system: M14
[11] = system: PC-3
[12] = system: SK-OV-3
[13] = system: SF-539
[14] = system: NCI-H522
[15] = system: RPMI-8226
[16] = system: UO-31
[17] = system: A549
[18] = system: HOP-62
[19] = system: OVCAR-3

SMILES	GI50 [1]	GI50 [2]	GI50 [3]	GI50 [4]	GI50 [5]	GI50 [6]	GI50 [7]	GI50 [8]	GI50 [9]	GI50 [10]	GI50 [11]	GI50 [12]	GI50 [13]	GI50 [14]	GI50 [15]	GI50 [16]	GI50 [17]	GI50 [18]	GI50 [19]
CC(C)=NNc1cnnc2ccc([N+](=O)[O-])cc12	16.3 µM (inactive)	36.1 µM (inactive)	> 100 µM (inactive)	47.2 µM (inactive)	67.8 µM (inactive)	> 100 µM (inactive)	33.3 µM (inactive)	> 100 µM (inactive)	> 100 µM (inactive)	78 µM (inactive)	> 100 µM (inactive)	> 100 µM (inactive)	> 100 µM (inactive)	15.5 µM (inactive)	31.6 µM (inactive)	35.2 µM (inactive)	> 100 µM (inactive)		
CC1=Cc2ccc(C)cc2C(=O)C1=O	1 µM (active)	5.04 µM (inactive)	20.4 µM (inactive)	4.18 µM (inactive)	2.06 µM (inactive)	6.18 µM (inactive)	19.8 µM (inactive)	17.6 µM (inactive)	1.83 µM (inactive)	4.81 µM (inactive)	15.8 µM (inactive)	13.9 µM (inactive)	6.28 µM (inactive)	1.64 µM (inactive)	2.16 µM (inactive)	1.64 µM (inactive)	23.7 µM (inactive)	21.3 µM (inactive)	4.79 µM (inactive)
NC1CC2C3CCC2C1C3=O (stereo not given)	> 100 µM (inactive)	> 100 µM (inactive)	> 100 µM (inactive)	> 100 µM (inactive)	> 100 µM (inactive)	> 100 µM (inactive)	> 100 µM (inactive)	> 100 µM (inactive)	> 100 µM (inactive)	> 100 µM (inactive)	> 100 µM (inactive)	> 100 µM (inactive)	> 100 µM (inactive)	> 100 µM (inactive)		> 100 µM (inactive)	> 100 µM (inactive)	> 100 µM (inactive)	> 100 µM (inactive)
O=C(O)COc1c(Cl)cc(Cl)c(C(c2c(Cl)cc(Cl)c(OCC(=O)O)c2Cl)C(Cl)(Cl)Cl)c1Cl	21.7 µM (inactive)	31 µM (inactive)	26.7 µM (inactive)	> 100 µM (inactive)	23 µM (inactive)	25.2 µM (inactive)	31.6 µM (inactive)	40.1 µM (inactive)	30.9 µM (inactive)	20.7 µM (inactive)	38 µM (inactive)	20.9 µM (inactive)	29.2 µM (inactive)	33.8 µM (inactive)	28.3 µM (inactive)	23 µM (inactive)	30.1 µM (inactive)	0.398 µM (active)	
NNC(=O)CC(=O)Nc1cccc(Cl)c1	> 100 µM (inactive)	> 100 µM (inactive)	> 100 µM (inactive)	> 100 µM (inactive)	> 100 µM (inactive)	47.3 µM (inactive)	> 100 µM (inactive)	> 100 µM (inactive)	> 100 µM (inactive)		> 100 µM (inactive)	> 100 µM (inactive)	> 100 µM (inactive)	25.4 µM (inactive)	> 100 µM (inactive)	> 100 µM (inactive)	> 100 µM (inactive)	> 100 µM (inactive)	> 100 µM (inactive)
CC(C)NCCCNc1c2ccccc2nc2cccc([N+](=O)[O-])c12	0.013 µM (active)	0.00957 µM (active)	0.0143 µM (active)	0.0138 µM (active)	0.0103 µM (active)	0.00389 µM (active)	0.00227 µM (active)	0.0169 µM (active)	0.00427 µM (active)	0.0113 µM (active)	0.00745 µM (active)	0.0566 µM (active)	0.0484 µM (active)	0.00161 µM (active)	0.00219 µM (active)	0.123 µM (active)	0.00358 µM (active)	0.0279 µM (active)	0.00834 µM (active)
O=C(N/N=C1/C(=O)c2c3ccccc3cc3cccc1c23)c1ccccc1	> 68.9 µM (inactive)	37.8 µM (inactive)	31.6 µM (inactive)	39.4 µM (inactive)	25.9 µM (inactive)	51.9 µM (inactive)	16.9 µM (inactive)	16.7 µM (inactive)	22.1 µM (inactive)	48.4 µM (inactive)	26.7 µM (inactive)	31.8 µM (inactive)	37.1 µM (inactive)	32.7 µM (inactive)	> 80.4 µM (inactive)	30.9 µM (inactive)	12.2 µM (inactive)	19.5 µM (inactive)	42.3 µM (inactive)
CC(=O)O[C@H]1CC[C@@]2(C)C(=CC[C@@H]3[C@@H]2CC[C@]2(C)C(=N/O)/C(=C/c4ccc([N+](=O)[O-])cc4)C[C@@H]32)C1	2.33 µM (inactive)	5.5 µM (inactive)		3.37 µM (inactive)	3.32 µM (inactive)	11.9 µM (inactive)	> 100 µM (inactive)	5.22 µM (inactive)	32.4 µM (inactive)	4.09 µM (inactive)	2.72 µM (inactive)	11.9 µM (inactive)	29.3 µM (inactive)	2.08 µM (inactive)	1.06 µM (active)	4.44 µM (inactive)	4.55 µM (inactive)	17.3 µM (inactive)	2.47 µM (inactive)
O=c1ccn(CC2(CO)CCCC2)c(=O)[nH]1	> 100 µM (inactive)	> 100 µM (inactive)	> 100 µM (inactive)	> 100 µM (inactive)	> 100 µM (inactive)	> 100 µM (inactive)	> 100 µM (inactive)	> 100 µM (inactive)	> 100 µM (inactive)		> 100 µM (inactive)	> 100 µM (inactive)	> 100 µM (inactive)	> 100 µM (inactive)	> 100 µM (inactive)	> 100 µM (inactive)	> 100 µM (inactive)	> 100 µM (inactive)	> 100 µM (inactive)
O=S(=O)(O)CCCc1cccc2ccccc12	31.3 µM (inactive)	> 100 µM (inactive)	> 100 µM (inactive)	> 100 µM (inactive)	> 100 µM (inactive)	> 100 µM (inactive)	> 100 µM (inactive)	> 100 µM (inactive)	> 100 µM (inactive)	> 100 µM (inactive)	> 100 µM (inactive)	> 100 µM (inactive)	> 100 µM (inactive)	> 100 µM (inactive)	> 100 µM (inactive)	> 100 µM (inactive)	> 100 µM (inactive)	> 100 µM (inactive)	> 100 µM (inactive)
C[C@H](CCC(=O)O)[C@H]1CC[C@H]2[C@@H]3[C@@H](O)C[C@@H]4C[C@H](O)CC[C@]4(C)[C@H]3CC[C@]12C [URSODIOL]	> 100 µM (inactive)	> 100 µM (inactive)	> 100 µM (inactive)	> 100 µM (inactive)	> 100 µM (inactive)	> 100 µM (inactive)	> 100 µM (inactive)	> 100 µM (inactive)	> 100 µM (inactive)	> 100 µM (inactive)	> 100 µM (inactive)		> 100 µM (inactive)	> 100 µM (inactive)	97.9 µM (inactive)	70 µM (inactive)	> 100 µM (inactive)	> 100 µM (inactive)	

From ChEMBL document CHEMBL1201862, “PubChem BioAssay data set” (2004)
